{
  "source": "patent US20090143279A1",
  "about": "(priority 2007, published 2009)",
  "key": {"cytochrome c": {"system": "cytochrome c", "sequence (P62897 whole entry)": "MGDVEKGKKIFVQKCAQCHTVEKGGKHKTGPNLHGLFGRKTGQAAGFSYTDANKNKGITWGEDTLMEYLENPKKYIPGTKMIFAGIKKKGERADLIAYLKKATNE", "assay_type": "cell-based, mouse"}, "[1]": {"system": "mitochondrial membrane potential", "assay_type": "cell-based, mouse"}, "nuOXPHOS transcripts": {"system": "nuOXPHOS transcripts", "assay_type": "cell-based, mouse"}, "mtOXPHOS transcripts": {"system": "mtOXPHOS transcripts", "assay_type": "cell-based, mouse"}, "reactive oxygen species": {"system": "reactive oxygen species", "assay_type": "cell-based, mouse"}, "OXPHOS gene expression": {"system": "OXPHOS gene expression", "assay_type": "cell-based, mouse"}, "[2]": {"system": "cellular dehydrogenase activity"}, "[3]": {"settings": "normalized composite Z-score vs mock-treated (DMSO) wells, Conc 20 μM"}, "[4]": {"settings": "composite Z-score vs mock-treated (DMSO) wells, Conc 20 μM"}, "[5]": {"settings": "20 μM, composite Z-score vs DMSO"}, "[6]": {"settings": "27.18 μM, composite Z-score vs DMSO"}, "[7]": {"settings": "composite Z-score vs DMSO, Conc 20 μM"}},
  "note": "Read-outs that look alike come from different tables or passages of the source.",
  "data": [
    {"compound": "CC(=O)O[C@@H]1CC2C(C)(C)[C@H](O)CC[C@]2(C)C2CC[C@@]3(C)[C@H](c4ccoc4)OC(=O)C4OC43[C@@]21C", "note": "(stereo partly drawn) [3alpha-hydroxydeoxodihydrogedunin]", "values": [
      {"measurement": "cyt c", "setting": "cytochrome c; [3]", "result": 1.091},
      {"measurement": "ΔΨm", "setting": "[1]; [3]", "result": "−0.061"},
      {"measurement": "nucOX", "setting": "nuOXPHOS transcripts; [3]", "result": "−0.832"},
      {"measurement": "mitoOX", "setting": "mtOXPHOS transcripts; [3]", "result": "−0.857"},
      {"measurement": "ROS", "setting": "reactive oxygen species; [3]", "result": 1.207},
      {"measurement": "GE-HTS", "setting": "OXPHOS gene expression; [3]", "result": "−0.892"},
      {"measurement": "MTT", "setting": "[2]; [3]", "result": "−1.072"},
      {"measurement": "Viability", "setting": "C2C12 myotubes; [3]", "result": 0.065}
    ]},
    {"compound": "theaflavin monogallate", "values": [
      {"measurement": "cyt c", "setting": "cytochrome c; [3]", "result": 1.252},
      {"measurement": "ΔΨm", "setting": "[1]; [3]", "result": "−0.581"},
      {"measurement": "nucOX", "setting": "nuOXPHOS transcripts; [3]", "result": "−0.017"},
      {"measurement": "mitoOX", "setting": "mtOXPHOS transcripts; [3]", "result": "−0.612"},
      {"measurement": "ROS", "setting": "reactive oxygen species; [3]", "result": "−0.820"},
      {"measurement": "GE-HTS", "setting": "OXPHOS gene expression; [3]", "result": "−0.211"},
      {"measurement": "MTT", "setting": "[2]; [3]", "result": "−0.786"},
      {"measurement": "Viability", "setting": "C2C12 myotubes; [3]", "result": 0.945}
    ]},
    {"compound": "C=C1C2=CC(=O)O[C@@H](c3ccoc3)[C@]2(C)CC[C@@H]1[C@@]1(C)C=CC(=O)C(C)(C)[C@@H]1CC(=O)OC", "note": "[deoxyandirobin]", "values": [
      {"measurement": "cyt c", "setting": "cytochrome c; [4]", "result": 1.196},
      {"measurement": "ΔΨm", "setting": "[1]; [4]", "result": 0.381},
      {"measurement": "nucOX", "setting": "nuOXPHOS transcripts; [4]", "result": 1.240},
      {"measurement": "mitoOX", "setting": "mtOXPHOS transcripts; [4]", "result": 1.246},
      {"measurement": "ROS", "setting": "reactive oxygen species; [4]", "result": "−1.077"},
      {"measurement": "GE-HTS", "setting": "OXPHOS gene expression; [4]", "result": 1.352},
      {"measurement": "MTT", "setting": "[2]; [4]", "result": 0.232},
      {"measurement": "Viability", "setting": "C2C12 myotubes; [4]", "result": 0.894}
    ]},
    {"compound": "C[N+](C)(C)CCOC(N)=O", "note": "[carbachol]", "values": [
      {"measurement": "cyt c", "setting": "cytochrome c; [5]", "result": "−0.154"},
      {"measurement": "cyt c", "setting": "cytochrome c; [6]", "result": "−0.202"},
      {"measurement": "ΔΨm", "setting": "[1]; [5]", "result": "−0.965"},
      {"measurement": "ΔΨm", "setting": "[1]; [6]", "result": "−0.296"},
      {"measurement": "nucOX", "setting": "nuOXPHOS transcripts; [5]", "result": 0.273},
      {"measurement": "nucOX", "setting": "nuOXPHOS transcripts; [6]", "result": "−0.176"},
      {"measurement": "mitoOX", "setting": "mtOXPHOS transcripts; [5]", "result": 0.391},
      {"measurement": "mitoOX", "setting": "mtOXPHOS transcripts; [6]", "result": 0.191},
      {"measurement": "ROS", "setting": "reactive oxygen species; [5]", "result": 1.304},
      {"measurement": "ROS", "setting": "reactive oxygen species; [6]", "result": 1.223},
      {"measurement": "GE-HTS", "setting": "OXPHOS gene expression; [5]", "result": 0.355},
      {"measurement": "GE-HTS", "setting": "OXPHOS gene expression; [6]", "result": "−0.060"},
      {"measurement": "MTT", "setting": "[2]; [5]", "result": "−1.002"},
      {"measurement": "MTT", "setting": "[2]; [6]", "result": 0.905},
      {"measurement": "Viability", "setting": "C2C12 myotubes; [5]", "result": "−0.502"},
      {"measurement": "Viability", "setting": "C2C12 myotubes; [6]", "result": "−0.239"}
    ]},
    {"compound": "CCOC(=O)C1(O)Oc2cc(OC)cc(OC)c2C(=O)C1c1ccccc1", "note": "(stereo not shown) [2-ethoxycarbonyl-2-hydroxy-5,7-dimethoxyisoflavanone, reference compound]", "values": [
      {"measurement": "cyt c", "setting": "cytochrome c; [4]", "result": 0.161},
      {"measurement": "ΔΨm", "setting": "[1]; [4]", "result": 0.215},
      {"measurement": "nucOX", "setting": "nuOXPHOS transcripts; [4]", "result": 0.232},
      {"measurement": "mitoOX", "setting": "mtOXPHOS transcripts; [4]", "result": 0.273},
      {"measurement": "ROS", "setting": "reactive oxygen species; [4]", "result": 0.774},
      {"measurement": "GE-HTS", "setting": "OXPHOS gene expression; [4]", "result": 0.280},
      {"measurement": "MTT", "setting": "[2]; [4]", "result": "−0.260"},
      {"measurement": "Viability", "setting": "C2C12 myotubes; [4]", "result": 0.511}
    ]},
    {"compound": "CC(COc1ccccc1)NC(C)C(O)c1ccc(O)cc1", "note": "(stereo not shown) [isoxsuprine]", "values": [
      {"measurement": "cyt c", "setting": "cytochrome c; [7]", "result": 0.295},
      {"measurement": "cyt c", "setting": "cytochrome c; composite Z-score vs mock-treated (DMSO) wells, concentration of each compound in μM", "result": "−0.148"},
      {"measurement": "ΔΨm", "setting": "[1]; [7]", "result": "−1.246"},
      {"measurement": "nucOX", "setting": "nuOXPHOS transcripts; [7]", "result": "−0.267"},
      {"measurement": "mitoOX", "setting": "mtOXPHOS transcripts; [7]", "result": 0.463},
      {"measurement": "ROS", "setting": "reactive oxygen species; [7]", "result": 1.375},
      {"measurement": "GE-HTS", "setting": "OXPHOS gene expression; [7]", "result": "−0.050"},
      {"measurement": "MTT", "setting": "[2]; [7]", "result": "−1.776"},
      {"measurement": "Viability", "setting": "C2C12 myotubes; [7]", "result": "−0.141"}
    ]},
    {"compound": "COC(=O)[C@@H]1OC(=O)C2OC23[C@@]1(C)CCC1[C@@]2(C)CCC(=O)C(C)(C)C2C[C@@H](OC(C)=O)[C@]13C", "note": "(stereo partly shown) [dihydrogedunic acid, methyl ester]", "values": [
      {"measurement": "cyt c", "setting": "cytochrome c; [4]", "result": "−0.443"},
      {"measurement": "ΔΨm", "setting": "[1]; [4]", "result": "−0.320"},
      {"measurement": "nucOX", "setting": "nuOXPHOS transcripts; [4]", "result": 0.141},
      {"measurement": "mitoOX", "setting": "mtOXPHOS transcripts; [4]", "result": 0.438},
      {"measurement": "ROS", "setting": "reactive oxygen species; [4]", "result": 0.411},
      {"measurement": "GE-HTS", "setting": "OXPHOS gene expression; [4]", "result": 0.244},
      {"measurement": "MTT", "setting": "[2]; [4]", "result": "−1.062"},
      {"measurement": "Viability", "setting": "C2C12 myotubes; [4]", "result": 0.103}
    ]},
    {"compound": "CC[C@@H](C)C(=O)O[C@H]1[C@H](O)[C@H]2[C@@H](CN3C[C@@H](C)CC[C@H]3[C@@]2(C)O)[C@@H]2C[C@]34O[C@]5(O)[C@@H](OC(=O)[C@@](C)(O)CC)CC[C@@]3(C)[C@@H]5[C@@H](OC(C)=O)[C@@H](OC(C)=O)[C@H]4[C@@]21O", "note": "[protoveratrine A]", "values": [
      {"measurement": "cyt c", "setting": "cytochrome c; [7]", "result": 1.155},
      {"measurement": "ΔΨm", "setting": "[1]; [7]", "result": 0.394},
      {"measurement": "nucOX", "setting": "nuOXPHOS transcripts; [7]", "result": "−0.978"},
      {"measurement": "mitoOX", "setting": "mtOXPHOS transcripts; [7]", "result": "−1.108"},
      {"measurement": "ROS", "setting": "reactive oxygen species; [7]", "result": "−0.267"},
      {"measurement": "GE-HTS", "setting": "OXPHOS gene expression; [7]", "result": "−1.106"},
      {"measurement": "MTT", "setting": "[2]; [7]", "result": "−0.100"},
      {"measurement": "Viability", "setting": "C2C12 myotubes; [7]", "result": 0.243}
    ]},
    {"compound": "3-deoxo-3beta-acetoxydeoxydihydrogedunin", "values": [
      {"measurement": "cyt c", "setting": "cytochrome c; [4]", "result": 0.398},
      {"measurement": "ΔΨm", "setting": "[1]; [4]", "result": 1.215},
      {"measurement": "nucOX", "setting": "nuOXPHOS transcripts; [4]", "result": "−0.791"},
      {"measurement": "mitoOX", "setting": "mtOXPHOS transcripts; [4]", "result": "−0.559"},
      {"measurement": "ROS", "setting": "reactive oxygen species; [4]", "result": 1.249},
      {"measurement": "GE-HTS", "setting": "OXPHOS gene expression; [4]", "result": "−0.742"},
      {"measurement": "MTT", "setting": "[2]; [4]", "result": "−1.633"},
      {"measurement": "Viability", "setting": "C2C12 myotubes; [4]", "result": 1.066}
    ]},
    {"compound": "COc1cc(C=CC=O)cc(OC)c1OC", "note": "[3,4,5-trimethoxycinnamaldehyde]", "values": [
      {"measurement": "cyt c", "setting": "cytochrome c; [7]", "result": "−0.808"},
      {"measurement": "ΔΨm", "setting": "[1]; [7]", "result": 0.647},
      {"measurement": "nucOX", "setting": "nuOXPHOS transcripts; [7]", "result": "−0.724"},
      {"measurement": "mitoOX", "setting": "mtOXPHOS transcripts; [7]", "result": 0.025},
      {"measurement": "ROS", "setting": "reactive oxygen species; [7]", "result": "−0.228"},
      {"measurement": "GE-HTS", "setting": "OXPHOS gene expression; [7]", "result": "−0.523"},
      {"measurement": "MTT", "setting": "[2]; [7]", "result": 1.043},
      {"measurement": "Viability", "setting": "C2C12 myotubes; [7]", "result": 1.061}
    ]},
    {"compound": "CC(=O)C[C@H]1CCCCN1", "note": "[pelletierine]", "values": [
      {"measurement": "cyt c", "setting": "cytochrome c; [3]", "result": 0.349},
      {"measurement": "ΔΨm", "setting": "[1]; [3]", "result": "−0.120"},
      {"measurement": "nucOX", "setting": "nuOXPHOS transcripts; [3]", "result": 0.077},
      {"measurement": "mitoOX", "setting": "mtOXPHOS transcripts; [3]", "result": "−0.077"},
      {"measurement": "ROS", "setting": "reactive oxygen species; [3]", "result": "−0.071"},
      {"measurement": "GE-HTS", "setting": "OXPHOS gene expression; [3]", "result": 0.036},
      {"measurement": "MTT", "setting": "[2]; [3]", "result": "−0.341"},
      {"measurement": "Viability", "setting": "C2C12 myotubes; [3]", "result": "−0.418"}
    ]}
  ]
}
